Laboratory results reported in the NIST ThermoML archive (doi:10.1021/je1001329).
± gives the expanded uncertainty stated by the source.

Legend:
[1] = 298.15 K, Ring tensiometer
[2] = xn = mol fraction of the nth substance listed; details: 298.15 K, Ring tensiometer

CC#N [acetonitrile]
surface tension liquid-gas [1]: 27.76 ± 0.54 mN/m

CC#N [acetonitrile] + CC(C)O
surface tension liquid-gas ([2]; x1 = 0.2001): 21.05 ± 0.5 mN/m
surface tension liquid-gas ([2]; x1 = 0.3621): 21.55 ± 0.5 mN/m
surface tension liquid-gas ([2]; x1 = 0.4885): 22.15 ± 0.5 mN/m
surface tension liquid-gas ([2]; x1 = 0.5398): 22.44 ± 0.51 mN/m
surface tension liquid-gas ([2]; x1 = 0.6001): 22.88 ± 0.51 mN/m
surface tension liquid-gas ([2]; x1 = 0.7): 23.84 ± 0.52 mN/m
surface tension liquid-gas ([2]; x1 = 0.8001): 24.94 ± 0.52 mN/m
surface tension liquid-gas ([2]; x1 = 0.8984): 26.23 ± 0.53 mN/m
surface tension liquid-gas ([2]; x1 = 0.9579): 27.1 ± 0.54 mN/m
surface tension liquid-gas ([2]; x1 = 0.9701): 27.28 ± 0.54 mN/m
surface tension liquid-gas ([2]; x1 = 0.9851): 27.55 ± 0.54 mN/m

CC#N [acetonitrile] + O
surface tension liquid-gas ([2]; x2 = 0.2032): 29.46 ± 0.55 mN/m
surface tension liquid-gas ([2]; x2 = 0.4087): 30.95 ± 0.57 mN/m
surface tension liquid-gas ([2]; x2 = 0.5149): 31.45 ± 0.57 mN/m
surface tension liquid-gas ([2]; x2 = 0.6041): 31.68 ± 0.57 mN/m
surface tension liquid-gas ([2]; x2 = 0.7459): 32.92 ± 0.58 mN/m
surface tension liquid-gas ([2]; x2 = 0.8145): 33.97 ± 0.59 mN/m
surface tension liquid-gas ([2]; x2 = 0.8773): 37.97 ± 0.62 mN/m
surface tension liquid-gas ([2]; x2 = 0.8977): 39.63 ± 0.63 mN/m
surface tension liquid-gas ([2]; x2 = 0.905): 40.54 ± 0.64 mN/m
surface tension liquid-gas ([2]; x2 = 0.9484): 49.39 ± 0.72 mN/m
surface tension liquid-gas ([2]; x2 = 0.9702): 55.92 ± 0.79 mN/m
surface tension liquid-gas ([2]; x2 = 0.9851): 62.36 ± 0.85 mN/m

CC(C)O [propan-2-ol]
surface tension liquid-gas [1]: 20.95 ± 0.5 mN/m

CC(C)O [propan-2-ol] + O
surface tension liquid-gas ([2]; x2 = 0.099): 21.65 ± 0.5 mN/m
surface tension liquid-gas ([2]; x2 = 0.2949): 21.97 ± 0.5 mN/m
surface tension liquid-gas ([2]; x2 = 0.5018): 22.28 ± 0.51 mN/m
surface tension liquid-gas ([2]; x2 = 0.5993): 22.74 ± 0.51 mN/m
surface tension liquid-gas ([2]; x2 = 0.7021): 23.28 ± 0.51 mN/m
surface tension liquid-gas ([2]; x2 = 0.8): 24.37 ± 0.52 mN/m
surface tension liquid-gas ([2]; x2 = 0.8502): 25.04 ± 0.52 mN/m
surface tension liquid-gas ([2]; x2 = 0.8991): 26.64 ± 0.53 mN/m
surface tension liquid-gas ([2]; x2 = 0.945): 32.36 ± 0.58 mN/m
surface tension liquid-gas ([2]; x2 = 0.9598): 35.83 ± 0.61 mN/m
surface tension liquid-gas ([2]; x2 = 0.9697): 39.36 ± 0.64 mN/m

O [water]
surface tension liquid-gas [1]: 72.09 ± 0.93 mN/m
